# According to article PMC4498294, “Tetrahydroisoquinolines affect the whole-cell phenotype of Mycobacterium tuberculosis by inhibiting the ATP-dependent MurE ligase” (Journal of Antimicrobial Chemotherapy, 2015):
# Where two headings read alike, the source gives them in different places. Marks after values point to notes of the source that are not given here.
# Columns and labels:
# [1] = test system: M. bovis BCG Pasteur; experiment: microbe, parasite or virus in culture; type: cell-based; conditions: Mycobacterium tuberculosis variant bovis BCG, BCG
# [2] = test system: murine macrophage cell line RAW264.7; experiment: Eukaryotic cell toxicity assay, RAW264.7; type: cell-based; conditions: Mus musculus, read-out: GIC50 RAW264.7
# [3] = target: MurE (Rv2158c) protein of M. tuberculosis H37Rv (Mycobacterium tuberculosis, UniProt P9WJL3); experiment: Mtb-MurE HPLC inhibition assay; type: biochemical; conditions: for IC50: HPLC assay, 37°C 30 min
# Sequence of MurE (Rv2158c) protein of M. tuberculosis H37Rv (P9WJL3 whole entry, looked up): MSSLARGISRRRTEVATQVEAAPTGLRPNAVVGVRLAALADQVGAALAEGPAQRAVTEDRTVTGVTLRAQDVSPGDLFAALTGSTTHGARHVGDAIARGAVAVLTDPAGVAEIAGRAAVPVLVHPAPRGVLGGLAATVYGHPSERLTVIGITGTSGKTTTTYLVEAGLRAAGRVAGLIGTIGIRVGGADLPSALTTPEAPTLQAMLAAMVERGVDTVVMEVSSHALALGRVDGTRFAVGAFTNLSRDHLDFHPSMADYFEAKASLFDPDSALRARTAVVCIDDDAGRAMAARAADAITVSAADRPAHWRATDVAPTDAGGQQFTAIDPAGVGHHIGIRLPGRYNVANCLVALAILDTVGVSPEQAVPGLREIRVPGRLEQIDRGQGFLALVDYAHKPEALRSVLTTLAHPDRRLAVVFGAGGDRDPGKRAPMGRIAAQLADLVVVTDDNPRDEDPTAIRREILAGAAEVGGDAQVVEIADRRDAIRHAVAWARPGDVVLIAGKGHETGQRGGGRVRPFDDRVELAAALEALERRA
# [4] = Human microsome stability assay; type: in vitro ADME; design: half-life: dose or concentration left out as unconfirmed
# Description: Microsomes and NADPH were then added to the solution and the reaction was incubated at 37°C for up to 60 min. Acetonitrile (300 μL) with internal standard was added to stop the incubation. The samples were centrifuged and the supernatant was then analysed by HPLC-MS/MS to detect the parent compound.
# [5] = Human hepatocyte stability assay; type: in vitro ADME; design: half-life / hepatocyte CLint: dose or concentration left out as unconfirmed
# Description: The compounds originally dissolved in DMSO were added to PBS to give a resulting concentration of 1 mM. Hepatocytes were then added to the solution and the reaction was incubated at 37°C for up to 120 min. Acetonitrile with internal standard was added to stop the incubation. The samples were centrifuged and the supernatant was then analysed by HPLC-MS/MS to detect the parent compound.
# [6] = Aqueous kinetic solubility; type: physicochemical; conditions: aqueous with cosolvent or surfactant or cyclodextrin, kinetic from dmso stock, 5% DMSO in PBS, 21°C
# Description: The compounds were equilibrated in 5% DMSO in PBS at 21°C for 24 h. The samples were then centrifuged at 15000 g for 10 min. A 100 μL sample of the supernatant was carefully collected and the soluble amount of compound quantified using LC-MS/MS. A standard curve for each compound was prepared in 100% acetonitrile. Solubility results are reported as low (<0.1 mg/mL), medium (0.1–0.5 mg/mL) and high (>0.5 mg/mL).
# [7] = target: T1, CYP 1A2 (Homo sapiens, UniProt P05177); experiment: CYP450 inhibition assay, CYP 1A2; type: in vitro ADME; design: dose or concentration left out as unconfirmed; conditions: CYP baculosomes with recombinant human CYP1A2, probe fluorogenic substrate (not named); human recombinant enzymes; read-out: Mean % inhibtion CYP 1A2
# T1 construct: purchased; host or cells: baculosomes (insect-cell microsomes; own knowledge)
# T1 sequence (P05177 1-516): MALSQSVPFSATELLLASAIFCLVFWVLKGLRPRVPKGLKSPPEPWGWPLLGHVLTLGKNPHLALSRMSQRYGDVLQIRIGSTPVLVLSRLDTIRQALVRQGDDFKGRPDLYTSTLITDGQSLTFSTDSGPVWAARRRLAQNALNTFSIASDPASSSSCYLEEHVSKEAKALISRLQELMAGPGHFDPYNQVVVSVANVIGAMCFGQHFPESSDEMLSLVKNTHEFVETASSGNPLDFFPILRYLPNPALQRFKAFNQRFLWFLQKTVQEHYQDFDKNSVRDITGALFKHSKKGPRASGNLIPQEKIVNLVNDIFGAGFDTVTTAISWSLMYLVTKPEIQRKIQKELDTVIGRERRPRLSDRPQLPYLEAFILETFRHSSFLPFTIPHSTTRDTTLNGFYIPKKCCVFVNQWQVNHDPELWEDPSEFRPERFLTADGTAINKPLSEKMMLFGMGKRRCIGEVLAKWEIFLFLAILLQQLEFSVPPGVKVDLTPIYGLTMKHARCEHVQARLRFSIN
# Description: (§1) The compounds originally dissolved in DMSO were added to PBS to give a resulting concentration of […]. CYP baculosomes containing cDNA for a single human P450 isozyme, the fluorogenic substrate and the NADPH were added to the test solution. The reaction was incubated at 37°C for at least 1 h. Fluorogenic substrates metabolized by CYP enzymes result in highly fluorescent products in aqueous solution. The inhibition of CYP prevents this metabolism, which corresponds to a decrease in the fluorescence signal. The fluorescence was measured on a plate reader.
# [8] = target: T2, CYP 2C9 (Homo sapiens, UniProt P11712); experiment: CYP450 inhibition assay, CYP 2C9; type: in vitro ADME; design: dose or concentration left out as unconfirmed; conditions: CYP baculosomes with recombinant human CYP2C9, probe fluorogenic substrate (not named); human recombinant enzymes; read-out: Mean % inhibtion CYP 2C9
# T2 construct: purchased; host or cells: baculosomes (insect-cell microsomes; own knowledge)
# T2 sequence (P11712 whole entry): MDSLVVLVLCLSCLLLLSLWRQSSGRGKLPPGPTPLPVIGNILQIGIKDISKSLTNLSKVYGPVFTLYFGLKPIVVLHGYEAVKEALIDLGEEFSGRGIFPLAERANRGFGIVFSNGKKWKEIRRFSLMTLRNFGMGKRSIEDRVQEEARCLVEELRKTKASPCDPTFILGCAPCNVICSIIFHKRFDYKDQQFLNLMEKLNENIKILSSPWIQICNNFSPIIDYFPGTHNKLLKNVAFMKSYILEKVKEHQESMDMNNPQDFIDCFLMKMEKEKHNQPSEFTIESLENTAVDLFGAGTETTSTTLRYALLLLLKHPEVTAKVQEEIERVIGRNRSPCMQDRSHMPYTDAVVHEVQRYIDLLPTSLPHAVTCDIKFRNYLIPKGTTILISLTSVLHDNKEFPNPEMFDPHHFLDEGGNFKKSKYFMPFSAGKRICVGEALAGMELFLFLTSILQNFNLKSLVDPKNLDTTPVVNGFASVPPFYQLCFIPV
# Description: as §1
# [9] = target: T3, CYP 2C19 (Homo sapiens, UniProt P33261); experiment: CYP450 inhibition assay, CYP 2C19; type: in vitro ADME; design: dose or concentration left out as unconfirmed; conditions: CYP baculosomes with recombinant human CYP2C19, probe fluorogenic substrate (not named); human recombinant enzymes; read-out: Mean % inhibtion CYP 2C19
# T3 construct: purchased; host or cells: baculosomes (insect-cell microsomes; own knowledge)
# T3 sequence (P33261 whole entry): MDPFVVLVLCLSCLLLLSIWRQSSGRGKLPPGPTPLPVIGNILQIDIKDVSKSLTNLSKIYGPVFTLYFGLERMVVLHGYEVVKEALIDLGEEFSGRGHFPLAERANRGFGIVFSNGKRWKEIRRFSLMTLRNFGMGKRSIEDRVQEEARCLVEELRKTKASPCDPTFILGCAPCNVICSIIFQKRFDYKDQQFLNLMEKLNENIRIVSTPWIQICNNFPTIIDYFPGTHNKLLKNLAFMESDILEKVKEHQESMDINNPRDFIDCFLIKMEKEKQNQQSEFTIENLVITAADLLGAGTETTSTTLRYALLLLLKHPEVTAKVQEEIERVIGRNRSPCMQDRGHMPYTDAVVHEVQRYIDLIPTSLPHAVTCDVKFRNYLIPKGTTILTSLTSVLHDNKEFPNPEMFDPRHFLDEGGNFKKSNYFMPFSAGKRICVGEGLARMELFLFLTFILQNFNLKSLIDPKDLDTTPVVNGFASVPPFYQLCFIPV
# Description: as §1
# [10] = target: T4, CYP 2D6 (Homo sapiens, UniProt P10635); experiment: CYP450 inhibition assay, CYP 2D6; type: in vitro ADME; design: dose or concentration left out as unconfirmed; conditions: CYP baculosomes with recombinant human CYP2D6, probe fluorogenic substrate (not named); human recombinant enzymes; read-out: Mean % inhibtion CYP 2D6
# T4 construct: purchased; host or cells: baculosomes (insect-cell microsomes; own knowledge)
# T4 sequence (P10635 whole entry): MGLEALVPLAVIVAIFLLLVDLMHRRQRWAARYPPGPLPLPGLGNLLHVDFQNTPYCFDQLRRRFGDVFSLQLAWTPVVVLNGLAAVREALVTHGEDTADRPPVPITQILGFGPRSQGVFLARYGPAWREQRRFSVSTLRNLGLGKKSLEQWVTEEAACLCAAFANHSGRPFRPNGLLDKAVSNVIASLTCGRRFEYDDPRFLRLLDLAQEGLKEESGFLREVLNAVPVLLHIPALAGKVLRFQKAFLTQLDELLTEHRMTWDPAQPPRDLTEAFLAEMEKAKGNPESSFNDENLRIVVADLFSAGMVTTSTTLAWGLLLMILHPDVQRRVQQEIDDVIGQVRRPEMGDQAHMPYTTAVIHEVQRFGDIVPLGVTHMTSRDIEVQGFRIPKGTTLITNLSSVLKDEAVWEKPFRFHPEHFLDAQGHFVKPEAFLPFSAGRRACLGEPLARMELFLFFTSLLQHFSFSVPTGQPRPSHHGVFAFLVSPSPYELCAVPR
# Description: as §1
# [11] = target: T5, CYP 3A4 (Homo sapiens, UniProt P08684); experiment: CYP450 inhibition assay, CYP 3A4; type: in vitro ADME; design: dose or concentration left out as unconfirmed; conditions: CYP baculosomes with recombinant human CYP3A4, probe fluorogenic substrate (not named); human recombinant enzymes; read-out: Mean % inhibtion CYP 3A4
# T5 construct: purchased; host or cells: baculosomes (insect-cell microsomes; own knowledge)
# T5 sequence (P08684 whole entry): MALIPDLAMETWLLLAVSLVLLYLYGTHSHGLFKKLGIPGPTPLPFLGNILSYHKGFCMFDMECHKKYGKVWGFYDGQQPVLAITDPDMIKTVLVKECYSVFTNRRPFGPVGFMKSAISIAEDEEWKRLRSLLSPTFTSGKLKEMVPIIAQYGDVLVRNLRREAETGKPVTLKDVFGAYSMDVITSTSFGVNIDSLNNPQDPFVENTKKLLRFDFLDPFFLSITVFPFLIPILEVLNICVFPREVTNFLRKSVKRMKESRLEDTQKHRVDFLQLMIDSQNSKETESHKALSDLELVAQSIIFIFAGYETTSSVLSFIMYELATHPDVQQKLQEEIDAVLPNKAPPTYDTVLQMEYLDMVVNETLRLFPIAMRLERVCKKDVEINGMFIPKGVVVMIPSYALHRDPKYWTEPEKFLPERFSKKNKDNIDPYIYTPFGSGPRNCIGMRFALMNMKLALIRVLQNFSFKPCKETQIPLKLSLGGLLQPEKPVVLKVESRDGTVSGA
# Description: as §1
# [12] = MDCK cell permeability assay; type: in vitro ADME, canine; conditions: dog, MDCK-MDR1; MDCK MDR-1 monolayer, class
# [13] = test system: MDCK cells carrying the MDR-1 gene; experiment: MDCK cell permeability assay; type: in vitro ADME, canine; conditions: MDCK MDR-1 monolayer, 10 μM, 30 min, apical to basolateral
# [14] = test system: MDR-1; experiment: MDCK cell permeability assay; type: in vitro ADME, canine; conditions: dog, MDCK-MDR1, MDCK MDR-1 monolayer, 10 μM, 30 min
# [15] = target: P-glycoprotein (Homo sapiens, UniProt P08183); experiment: in vitro; conditions: dog, MDCK-MDR1
# Sequence of P-glycoprotein (P08183 whole entry): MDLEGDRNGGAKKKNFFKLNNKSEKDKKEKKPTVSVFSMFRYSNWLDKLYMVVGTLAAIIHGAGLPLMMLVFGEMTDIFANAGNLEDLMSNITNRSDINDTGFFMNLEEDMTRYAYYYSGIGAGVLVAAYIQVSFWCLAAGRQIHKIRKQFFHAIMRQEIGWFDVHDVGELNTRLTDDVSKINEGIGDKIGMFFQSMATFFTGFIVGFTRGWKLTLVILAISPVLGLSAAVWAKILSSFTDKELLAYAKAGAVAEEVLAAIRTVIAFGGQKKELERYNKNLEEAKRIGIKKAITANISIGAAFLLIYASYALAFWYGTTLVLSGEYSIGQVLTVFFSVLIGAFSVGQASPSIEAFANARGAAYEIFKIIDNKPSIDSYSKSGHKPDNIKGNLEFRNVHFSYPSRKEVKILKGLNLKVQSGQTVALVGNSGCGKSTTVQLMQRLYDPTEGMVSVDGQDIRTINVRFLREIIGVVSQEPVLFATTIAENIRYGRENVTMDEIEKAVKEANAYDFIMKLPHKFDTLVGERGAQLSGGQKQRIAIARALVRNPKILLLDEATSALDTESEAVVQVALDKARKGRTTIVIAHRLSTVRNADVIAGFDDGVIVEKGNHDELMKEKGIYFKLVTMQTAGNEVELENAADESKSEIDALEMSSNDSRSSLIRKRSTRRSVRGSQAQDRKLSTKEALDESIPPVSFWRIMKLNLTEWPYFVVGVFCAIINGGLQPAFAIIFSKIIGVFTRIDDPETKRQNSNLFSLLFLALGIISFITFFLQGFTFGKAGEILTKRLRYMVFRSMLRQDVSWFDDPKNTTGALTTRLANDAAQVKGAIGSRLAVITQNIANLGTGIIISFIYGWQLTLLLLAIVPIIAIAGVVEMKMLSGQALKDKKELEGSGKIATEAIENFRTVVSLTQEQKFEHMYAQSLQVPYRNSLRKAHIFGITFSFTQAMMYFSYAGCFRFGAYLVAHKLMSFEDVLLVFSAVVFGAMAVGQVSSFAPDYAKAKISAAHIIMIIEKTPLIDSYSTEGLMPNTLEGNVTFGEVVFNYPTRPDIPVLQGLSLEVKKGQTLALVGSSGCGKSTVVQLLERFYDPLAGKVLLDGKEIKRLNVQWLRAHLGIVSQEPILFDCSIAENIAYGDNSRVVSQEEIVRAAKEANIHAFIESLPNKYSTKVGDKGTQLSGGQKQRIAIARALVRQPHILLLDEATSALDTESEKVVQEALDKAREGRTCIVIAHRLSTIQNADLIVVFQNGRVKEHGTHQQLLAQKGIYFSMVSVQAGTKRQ
# Description: All dose solutions contained 10 μM propranolol as an internal standard. MDCK cells carrying the MDR-1 gene were used to seed filters that were exposed to a fixed volume of the donor solution containing the compound of interest. The compound's ability to traverse the monolayer and appear in the receiver compartment was measured over a 30 min period. Bidirectional permeability measurements were derived by examining the transfer of compound from both the apical to the basolateral compartment and vice versa. Sample analysis was conducted using LC-MS/MS with the detection settings optimized for each test compound.
# [16] = test system: M. tuberculosis H37Rv; experiment: SPOTi growth inhibition assay, M. tuberculosis H37Rv; type: cell-based; conditions: Mycobacterium tuberculosis, H37RV, SPOTi, read-out: MIC M. tuberculosis H37Rv
# [17] = test system: M. bovis BCG; type: cell-based; conditions: M. bovis BCG treated at 4 × MIC for 48 h (D-cycloserine 100 mg/L, 39 160 mg/L); 100 cells
# [18] = test system: murine macrophage cell line RAW264.7; design: method as in Gupta and Bhakta.[27]; conditions: ref Gupta and Bhakta.[27]; cited from earlier work
# [19] = test system: M. aurum; experiment: SPOTi assay, M. aurum; type: cell-based, Mycobacterium aurum; conditions: Mycolicibacterium aurum
# [20] = test system: M. smegmatis mc^2155; experiment: SPOTi assay, M. smegmatis; type: cell-based, Mycobacterium smegmatis; conditions: Mycolicibacterium smegmatis, MC^2155
# [21] = 336 h, read-out: MIC M. bovis BCG, SPOTi, 2 weeks at 37°C
# [22] = read-out: MIC M. bovis BCG, SPOTi, value in square brackets
# [23] = RAW264.7, value in square brackets
# [24] = murine macrophage cell line RAW264.7
smiles,measurement,setting,value
Oc1ccc(Br)c2c1C(Cc1ccc3c(c1)OCO3)NCC2 (stereo not drawn) [Compound 28],MIC,[1]; [21],20 µg/mL
same,MIC,[1]; [22],55 µM
same,IC50,[2]; [23],130 µM
same,IC50,[2]; [24],47 µg/mL
same,IC50,[3],< 111 µM
same,t1/2 microsomes,[4]; human liver microsomes,9.8 min
same,Mean % microsome turnover,"[4]; human liver microsomes, 0 min",-5.33e-15%
same,Mean compound remaining,"[4]; human liver microsomes, 0 min",100.00
same,Microsomal stability,"[4]; human liver microsomes, 0 min",4.60
same,Mean % microsome turnover,"[4]; human liver microsomes, 15 min",64.61%
same,Mean compound remaining,"[4]; human liver microsomes, 15 min",35.39
same,Microsomal stability,"[4]; human liver microsomes, 15 min",3.57
same,Mean % microsome turnover,"[4]; human liver microsomes, 30 min",88.00%
same,Mean compound remaining,"[4]; human liver microsomes, 30 min",12.00
same,Microsomal stability,"[4]; human liver microsomes, 30 min",2.48
same,Mean % microsome turnover,"[4]; human liver microsomes, 60 min",92.24%
same,Mean compound remaining,"[4]; human liver microsomes, 60 min",7.76
same,Microsomal stability,"[4]; human liver microsomes, 60 min",2.03
same,half-life,"[4]; human, liver microsomes, read-out: t1/2 microsomes",9.81 min
same,hepatic extraction ratio,[5]; hepatocyte stability assay,> 0.6
same,t1/2 hepatocytes,[5]; human hepatocytes,23.2 min
same,half-life,"[5]; human, hepatocytes, human hepatocytes, read-out: t1/2 hepatocytes",23.2 min
same,hepatocyte CLint,"[5]; human, hepatocytes, in vivo hepatic intrinsic clearance prediction values",17.4 µL/min/1e6 cells
same,solubility kinetic at 24 h,[6],800 µg/mL
same,solubility at 24 h,[6]; read-out: aqueous solubility (class),> 500 µg/mL
same,inhibition,[7],81.4%
same,inhibition,[8],81.8%
same,inhibition,[9],97.5%
same,inhibition,[10],92.9%
same,inhibition,[11],93.2%
same,"Papp A→B at 30 min, 10 μM",[12],< 2 ×10⁻⁶ cm/s
same,Papp A-B,[13],"1.7 cm/sec, x10-6"
same,"Papp A→B at 30 min, 10 μM",[14]; apical to basolateral,1.7 ×10⁻⁶ cm/s
same,"Papp B→A at 30 min, 10 μM",[14]; basolateral to apical,18.8 ×10⁻⁶ cm/s
same,efflux ratio,[15],11.3
COc1ccc(Cl)c2c1C(Cc1cc3c(cc1Br)OCO3)NCC2 (stereo not drawn) [Compound 39],MIC,[1]; [21],40 µg/mL
same,MIC,[1]; [22],97 µM
same,MIC,"[16]; 336 h, 2 weeks at 37°C",40 µg/mL
same,MIC,[16]; value in square brackets,97 µM
same,IC50,[2]; [23],178 µM
same,IC50,[2]; [24],73 µg/mL
same,cell length,[17],4.7 ± 1.4 μm
"NNC(=O)c1ccncc1 [Isoniazid, reference compound]",MIC,[1]; [21],0.1 µg/mL
same,MIC,[1]; [22],0.73 µM
same,MIC,"[16]; 336 h, 2 weeks at 37°C",0.1 µg/mL
same,MIC,[16]; value in square brackets,0.73 µM
same,IC50,[3],> 1000 µM
same,Mtb-MurE inhibitory effect,"[3]; negative control, any of the concentrations examined",no inhibitory effect
same,GIC50 RAW264.7,[18],3000^a mg/L
"O=c1cc(-c2ccccc2)oc2c1ccc1ccccc12 [α-naphthoflavone, reference compound]",inhibition,[7],100%
same,inhibition,[8],101%
same,inhibition,[9],100%
same,inhibition,[10],99.1%
same,inhibition,[11],101%
"CO[C@H]1/C=C/O[C@@]2(C)Oc3c(C)c(O)c4c(O)c(c(/C=N/N5CCN(C)CC5)c(O)c4c3C2=O)NC(=O)/C(C)=C\C=C\[C@H](C)[C@H](O)[C@@H](C)[C@@H](O)[C@@H](C)[C@H](OC(C)=O)[C@@H]1C [Rifampicin, reference compound]",MIC,[1]; [21],0.05 µg/mL
same,MIC,[1]; [22],0.061 µM
same,MIC,"[16]; 336 h, 2 weeks at 37°C",0.05 µg/mL
same,MIC,[16]; value in square brackets,0.061 µM
same,MIC,[19],0.1 µg/mL
same,MIC,[20],0.1 µg/mL
same,GIC50 RAW264.7,[18],700^a mg/L
"N[C@@H]1CON=C1O [D-cycloserine, reference compound]",MIC,[1]; [21],25 µg/mL
same,cell length,[17],4.2 ± 1.0 μm
